The values that follow are results of earlier work, collected in US20090053769A1, “HETEROLOGOUS PRODUCTION OF NATURAL PRODUCTS IN BACTERIA” (University of Southern California, priority 2007, published 2009).

Positions of bridges follow the written chain, without caps; N, C: chain ends. Non-standard residues stand in square brackets, D forms with d. Residues, ends and D or L forms follow the SMILES beside them. Chains are numbered I, II in the order given. *: point of attachment. Quinoxaline2carbonyl = O=C(c1cnc2ccccc2n1)*; NMeV = CN[CH](C(=O)O)C(C)C; NMeC = CN[CH](CS)C(=O)O

For the data set the following is noted: general statement on antibacterial, anticancer and antiviral activities, reference 24.

For the compound `CC1NC(=O)C(NC(=O)c2cnc3ccccc3n2)COC(=O)C(C(C)C)N(C)C(=O)C2CSSCC(C(=O)N(C)C(C(C)C)C(=O)OCC(NC(=O)c3cnc4ccccc4n3)C(=O)NC(C)C(=O)N2C)N(C)C1=O` (centres unmarked) [compound 2, triostin A] (I: Quinoxaline2carbonyl-SA[NMeC][NMeV] / II: Quinoxaline2carbonyl-SA[NMeC][NMeV]; ester I:1-II:C, I:C-II:1; disulfide I:3-II:3; configuration not given here), the potency entry is on record as “nanomolar potency”.
As to `CS[C@H]1SC[C@H]2C(=O)N(C)[C@@H](C(C)C)C(=O)OC[C@@H](NC(=O)c3cnc4ccccc4n3)C(=O)N[C@@H](C)C(=O)N(C)[C@@H]1C(=O)N(C)[C@@H](C(C)C)C(=O)OC[C@@H](NC(=O)c1cnc3ccccc3n1)C(=O)N[C@@H](C)C(=O)N2C` [compound 1, echinomycin], the potency entry was “nanomolar potency”.
